Literature values in patent US10245273B2, “Oral pharmaceutical products and methods of use combining testosterone esters with hypolipidemic agents” (Clarus Therapeutics, Inc., priority 2013, dated 2019).

Structure (SMILES): Cc1ccc(C)c(OCCCC(C)(C)C(=O)O)c1 [gemfibrozil]
- Subjects with a primary event (600 mg twice daily for 5 years (placebo 21.7%)): 17.3%
- Reduction in CHD events / relative risk reduction of primary outcome (nonfatal myocardial infarction or death of cardiac origin) (600 mg twice daily, median follow-up 5.1 years, vs placebo): 22%
- Increase in numbers of small HDL particles (in vivo): 21%
- Increase in total HDL particles (in vivo): 10%
- Relative risk reduction for combined cardiac events (nonfatal MI, death from coronary causes or stroke) (vs placebo): 24%
